{"source": "patent US20100087623A1", "about": "“Method of extracting proteins and peptides from nano pearl powder” (priority 2008, published 2010)", "tested_on": "tyrosinase (tyramine acid enzyme)", "experiment": "Inhibition of tyrosinase (tyramine acid enzyme) activity, dopachrome growth", "format": "biochemical", "settings": "2 mg/mL or 1 mg/mL, 37° C., pH 6.8", "procedure": "Pearl powder solution is subjected to filter by employing a device called Centriprep YM3. […] In this experiment, effects of tyrosinase activation (i.e., dopachrome growth) caused by each of soluble organic compound extract of nono pearl powder and soluble organic compound extract of micro pearl powder are evaluated. Also, for pearl powder of the same effects of tyrosinase activation caused by organic compounds having a molecular weight more than 5 kDa and by organic compounds having a molecular weight less than 5 kDa are evaluated.\nReferring to FIG. 11 and Table 7 again, experiment conditions are concentration of 1 mg/mL, temperature of 37° C., and pH value of 6.8.", "note": "“And” between values parts separate entries of the source, which are not always exact repeats. Equal entries are not always repeated.", "data": [{"smiles": "OC[C@H]1O[C@@H](Oc2ccc(O)cc2)[C@H](O)[C@@H](O)[C@@H]1O", "note": "[arbutin]", "values": [{"measurement": "Inhibition (%) of tyramine acid enzyme (dopachrome growth)", "setting": "0 minute", "result": "0 ± 0", "unit": "%"}, {"measurement": "Inhibition (%) of tyramine acid enzyme (dopachrome growth)", "setting": "5 minute", "result": "36.5 ± 1.9", "unit": "%"}, {"measurement": "Inhibition (%) of tyramine acid enzyme (dopachrome growth)", "setting": "10 minute", "result": "48.6 ± 0.7", "unit": "%"}, {"measurement": "Inhibition (%) of tyramine acid enzyme (dopachrome growth)", "setting": "15 minute", "result": "54.3 ± 1.0", "unit": "%"}, {"measurement": "Inhibition (%) of tyramine acid enzyme (dopachrome growth)", "setting": "30 minute", "result": "53% and 54.7 ± 0.9%"}, {"measurement": "Inhibition (%) of tyramine acid enzyme (dopachrome growth)", "setting": "45 minute", "result": "37.1 ± 1.3", "unit": "%"}, {"measurement": "Inhibition (%) of tyramine acid enzyme (dopachrome growth)", "setting": "60 minute", "result": "21% and 21.6 ± 1.9%"}]}]}
